The text below walks through data of PMC4803471 (Anesthesiology, 2016).

What is called EC50 is the concentration giving half of the maximal effect. Read a low EC50 as an effect from little substance.

For data set [1], the system named is Sprague-Dawley rats. The data set is described as follows: Rat loss of righting reflexes. Conditions: intravenous, dose producing LORR in 50% of rats.
Data set [2] deals with Sprague-Dawley rats. Particulars: previously published value; cited from earlier work.
For data set [3] the following is noted: previously published value; cited from earlier work.
Data set [4] concerns the target α1(L264T)β3γ2 GABAA receptors (Homo sapiens, UniProt P14867+P28472, L291T). Type of data set: cell-based. Conditions: for Peak amplitude of evoked current: representative trace, single oocyte.
Data set [5] can be described thus: Octanol:water partition coefficient determination. Type of data set: physicochemical. Particulars: mean ± SD.

Like-named read-outs stand apart in the source and are kept apart here. Some results are limits rather than exact numbers.

Chain of α1(L264T)β3γ2 GABAA receptors (P14867 28-456 L291T): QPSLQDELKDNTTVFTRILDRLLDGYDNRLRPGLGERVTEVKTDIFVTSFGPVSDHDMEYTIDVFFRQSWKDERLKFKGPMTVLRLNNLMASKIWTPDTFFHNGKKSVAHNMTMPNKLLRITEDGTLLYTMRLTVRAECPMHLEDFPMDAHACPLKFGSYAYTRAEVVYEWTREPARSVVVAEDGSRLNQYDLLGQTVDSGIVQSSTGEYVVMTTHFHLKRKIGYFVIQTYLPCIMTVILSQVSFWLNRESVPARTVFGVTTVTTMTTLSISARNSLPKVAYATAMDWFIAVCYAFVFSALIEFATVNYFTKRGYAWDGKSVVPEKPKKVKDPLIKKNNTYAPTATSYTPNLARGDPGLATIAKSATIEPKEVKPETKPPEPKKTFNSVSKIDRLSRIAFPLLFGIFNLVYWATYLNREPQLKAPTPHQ
Chain of α1(L264T)β3γ2 GABAA receptors (P28472 26-473): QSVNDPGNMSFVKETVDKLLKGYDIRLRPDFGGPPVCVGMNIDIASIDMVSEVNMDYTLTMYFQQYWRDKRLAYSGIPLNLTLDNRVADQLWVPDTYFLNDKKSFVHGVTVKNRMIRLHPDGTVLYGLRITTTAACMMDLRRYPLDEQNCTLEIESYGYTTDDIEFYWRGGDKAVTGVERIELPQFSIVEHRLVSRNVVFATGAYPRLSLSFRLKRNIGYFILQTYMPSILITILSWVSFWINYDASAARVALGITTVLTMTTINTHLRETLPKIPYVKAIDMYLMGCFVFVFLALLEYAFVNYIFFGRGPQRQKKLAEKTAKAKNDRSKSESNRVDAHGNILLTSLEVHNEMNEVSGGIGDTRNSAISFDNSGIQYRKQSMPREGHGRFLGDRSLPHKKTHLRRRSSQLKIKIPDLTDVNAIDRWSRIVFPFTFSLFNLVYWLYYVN
Chain of α1(L264T)β3γ2 GABAA receptors (P18507 40-475 partner): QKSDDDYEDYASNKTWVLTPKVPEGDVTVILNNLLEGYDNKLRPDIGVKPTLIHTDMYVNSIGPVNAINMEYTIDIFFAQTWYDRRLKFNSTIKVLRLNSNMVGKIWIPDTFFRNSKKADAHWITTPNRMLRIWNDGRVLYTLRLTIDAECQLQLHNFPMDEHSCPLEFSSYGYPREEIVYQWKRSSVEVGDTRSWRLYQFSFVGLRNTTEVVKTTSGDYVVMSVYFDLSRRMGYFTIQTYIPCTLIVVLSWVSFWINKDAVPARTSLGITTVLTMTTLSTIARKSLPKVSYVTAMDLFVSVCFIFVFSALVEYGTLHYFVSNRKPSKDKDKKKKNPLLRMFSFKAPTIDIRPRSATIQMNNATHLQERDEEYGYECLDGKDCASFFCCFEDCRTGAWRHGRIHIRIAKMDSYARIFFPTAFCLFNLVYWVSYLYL

For the compound 4-Pyridine carboetomidate [Compound 7], in the data set on Sprague-Dawley rats [1], the “Hypnotic ED50 (loss of righting reflexes)” value amounted to 25.0 ± 0.3 mg/kg.
Take `CCOC(=O)c1cncn1[C@H](C)c1ccccc1` [Compound 1, Etomidate, reference compound]: in the data set on Sprague-Dawley rats [2], the “Hypnotic ED50 (loss of righting reflexes)” value was 0.47 ± 0.17 (13) mg/kg. Moreover, in data set [3], the “Octanol:Buffer Partition Coefficient” value is 731 ± 72 (13).
In data set [4], `COC(=O)c1cncn1C(C)c1ccccc1` (centres unmarked) [Compound 2, Metomidate, reference compound] registered an EC50 of 4.4 ± 0.7 µM. Further, in data set [5], the “Octanol:Buffer Partition Coefficient” value was 380 ± 48.
With `CCOC(=O)c1cncn1[C@@H](C)c1ccccc1` [Compound 3, S-etomidate], in the data set on Sprague-Dawley rats [2], the “Hypnotic ED50 (loss of righting reflexes)” value is 5.2 ± 0.9 (13) mg/kg. Besides, the “Octanol:Buffer Partition Coefficient” value in data set [3] is 711 ± 90 (13).
As to `CCOC(=O)c1cncn1Cc1ccccc1` [Compound 4, Dihydrogen etomidate], the “Hypnotic ED50 (loss of righting reflexes)” value in the data set with Sprague-Dawley rats [2] was 5.2 ± 1 (13) mg/kg. The “Octanol:Buffer Partition Coefficient” value in data set [3] is 388 ± 32 (13).
Turning to `CCOC(=O)c1cncn1C1(c2ccccc2)CC1` [Compound 5, Cyclopropyletomidate], in the data set on Sprague-Dawley rats [2], the “Hypnotic ED50 (loss of righting reflexes)” value is on record as 5.2 ± 0.7 (13) mg/kg. In data set [3], the “Octanol:Buffer Partition Coefficient” value is listed as 458 ± 45 (13).
Take `CCOC(=O)c1cccn1[C@H](C)c1ccccc1` [Compound 6, Carboetomidate]: the “Potency relative to 4-pyridine carboetomidate” value in data set [4] (fold higher GABAA receptor potency) is on record as 24 fold. For the same compound, the “GABAA receptors activated at the highest concentration studied (at most)” value in data set [4] (normalized to 100 μM GABA, limited by aqueous solubility) is at most 68 ± 6%. In data set [4] (ratio of EC50s), the “Potency for directly activating GABAA receptors relative to etomidate” value is “approximately 1/8”. In the data set with Sprague-Dawley rats [2], the “Hypnotic ED50 (loss of righting reflexes)” value was 7.7 ± 0.8 (18) mg/kg. Besides, the “Octanol:Buffer Partition Coefficient” value in data set [3] is 15,000 ± 3,700 (20).
As to `COC(=O)COC(=O)c1cncn1[C@H](C)c1ccccc1` [Compound 11, Methoxycarbonyl metomidate], the “Hypnotic ED50 (loss of righting reflexes)” value in the data set with Sprague-Dawley rats [2] is given as 11.1 ± 0.8 (19) mg/kg. In data set [3], the “Octanol:Buffer Partition Coefficient” value was 159 ± 15 (19).
As for `COC(=O)[C@H](C)OC(=O)c1cncn1[C@H](C)c1ccccc1` [Compound 12, S-methyl-methoxycarbonyl metomidate], in the data set with Sprague-Dawley rats [2], the “Hypnotic ED50 (loss of righting reflexes)” value is 3.5 ± 0.4 (19) mg/kg. Moreover, in data set [3], the “Octanol:Buffer Partition Coefficient” value is 330 ± 16 (19).
Take `COC(=O)[C@@H](C)OC(=O)c1cncn1[C@H](C)c1ccccc1` [Compound 13, R-methyl-methoxycarbonyl metomidate]: in the data set on Sprague-Dawley rats [2], the “Hypnotic ED50 (loss of righting reflexes)” value is 9.6 ± 1.9 (19) mg/kg. For the same compound, the “Octanol:Buffer Partition Coefficient” value in data set [3] is 380 ± 15 (19).
As to `COC(=O)C(C)(C)OC(=O)c1cncn1[C@H](C)c1ccccc1` [Compound 14, Dimethyl-methoxycarbonyl metomidate], in the data set with Sprague-Dawley rats [2], the “Hypnotic ED50 (loss of righting reflexes)” value is 0.72 ± 0.16 (19) mg/kg. Moreover, the “Octanol:Buffer Partition Coefficient” value in data set [3] is reported as 660 ± 110 (19).
On to `COC(=O)CCOC(=O)c1cncn1[C@H](c1ccccc1)C(C)C` [Compound 16, (S)-isopropyl-methoxycarbonyl metomidate], for which the “Peak amplitude of evoked current” value is on record as 0.29 μA in data set [4] (1 μM) and 0.90 μA in data set [4] (10 μM). For the same compound, the “Hypnotic ED50 (loss of righting reflexes)” value with Sprague-Dawley rats [2] is 1.2 ± 0.2 (19) mg/kg. Moreover, the “Octanol:Buffer Partition Coefficient” value in data set [3] is 2,860 ± 67 (19).
On to `COC(=O)CCOC(=O)c1cncn1[C@@H](c1ccccc1)C(C)C` [Compound 17, (R)-isopropyl-methoxycarbonyl metomidate], for which the “Peak amplitude of evoked current” value in data set [4] (1 μM) stood at 0.041 μA. The “Hypnotic ED50 (loss of righting reflexes)” value with Sprague-Dawley rats [2] is reported as 3.6 ± 0.8 (19) mg/kg. Besides, the “Octanol:Buffer Partition Coefficient” value in data set [3] was 3,830 ± 310 (19).
Regarding `COC(=O)CCOC(=O)c1cncn1[C@H](C)c1ccccc1` [Compound 18, Methoxycarbonyl etomidate], in the data set with Sprague-Dawley rats [2], the “Hypnotic ED50 (loss of righting reflexes)” value was 5.3 ± 1.5 (19) mg/kg. For the same compound, the “Octanol:Buffer Partition Coefficient” value in data set [3] was 190 ± 25 (19).
Regarding `COC(=O)[C@@H](C)COC(=O)c1cncn1[C@H](C)c1ccccc1` [Compound 19, α-(S)-methyl methoxycarbonyl etomidate], in the data set with Sprague-Dawley rats [2], the “Hypnotic ED50 (loss of righting reflexes)” value was 3.1 ± 0.4 (19) mg/kg. The “Octanol:Buffer Partition Coefficient” value in data set [3] is on record as 530 ± 170 (19).
For the compound `COC(=O)[C@H](C)COC(=O)c1cncn1[C@H](C)c1ccccc1` [Compound 20, α-(R)-methyl-methoxycarbonyl etomidate], in the data set with Sprague-Dawley rats [2], the “Hypnotic ED50 (loss of righting reflexes)” value is listed as 5.2 ± 0.5 (19) mg/kg. For the same compound, the “Octanol:Buffer Partition Coefficient” value in data set [3] is reported as 670 ± 120 (19).
With `COC(=O)C(C)(C)COC(=O)c1cncn1[C@H](C)c1ccccc1` [Compound 21, α-Dimethyl-methoxycarbonyl etomidate], the “Hypnotic ED50 (loss of righting reflexes)” value in the data set on Sprague-Dawley rats [2] is 2.4 ± 1 (19) mg/kg. Besides, in data set [3], the “Octanol:Buffer Partition Coefficient” value was 2,240 ± 150 (19).
Regarding `COC(=O)C[C@@H](C)OC(=O)c1cncn1[C@H](C)c1ccccc1` [Compound 22, β-(R)-methyl-methoxycarbonyl etomidate], in the data set with Sprague-Dawley rats [2], the “Hypnotic ED50 (loss of righting reflexes)” value was 3.5 ± 0.6 (19) mg/kg. Also, the “Octanol:Buffer Partition Coefficient” value in data set [3] is listed as 500 ± 24 (19).
With `COC(=O)CC(C)(C)OC(=O)c1cncn1C(C)c1ccccc1` (stereo not drawn) [Compound 23, β-Dimethyl-methoxycarbonyl etomidate], the “Hypnotic ED50 (loss of righting reflexes)” value with Sprague-Dawley rats [2] is reported as 1.9 ± 0.3 (19) mg/kg. For the same compound, the “Octanol:Buffer Partition Coefficient” value in data set [3] is listed as 1,580 ± 40 (19).
As to “Cyclopropyl methoxycarbonyl metomidate [Compound 15]”, the “Hypnotic ED50 (loss of righting reflexes)” value in the data set on Sprague-Dawley rats [2] is listed as 0.69 ± 0.04 (19) mg/kg. Further, the “Octanol:Buffer Partition Coefficient” value in data set [3] was 420 ± 11 (19).
For “Racemic pentafluoroetomidate [Compound 8]”, the “Octanol:Buffer Partition Coefficient” value in data set [5] is given as 860 ± 260. Also, in the data set with Sprague-Dawley rats [1], the “Hypnotic ED50 (loss of righting reflexes)” value amounted to 1.7 ± 0.4 mg/kg.
Turning to S-pentafluoroetomidate [Compound 9], the “EC50 of S-enantiomer relative to racemic mixture” value in data set [4] (fold higher EC50) came out at 22 fold. In data set [5], the “Octanol:Buffer Partition Coefficient” value stood at 880 ± 220. In addition, the “Hypnotic ED50 (loss of righting reflexes)” value in the data set with Sprague-Dawley rats [1] is 11.1 ± 0.8 mg/kg.
